According to publication PMC9781217, “Discovery of Novel and Selective G-Protein Coupled Receptor 120 (GPR120) Agonists for the Treatment of Type 2 Diabetes Mellitus” (Molecules, 2022):
“Also recorded” adds a separate entry of the source.

Assays:
GPR40 = tested on: GPR40; set-up: method as in ref 15-26 = [15]; PMID 22519963; doi:10.1021/jm300215x; 15. Shimpukade B. Hudson B.D. Hovgaard C.K. Milligan G. Ulven T. Discovery of a potent and selective GPR120 agonist J. Med. Chem. 2012 55 4511 4515 10.1021/jm300215x 22519963 || [16]; PMID 24881566; doi:10.1016/j.bmcl.2014.05.012; 16. Sparks S.M. Chen G. Collins J.L. Danger D. Dock S.T. Jayawickreme C. Jenkinson S. Laudeman C. Leesnitzer M.A. Liang X. Identification of diarylsulfonamides as agonists of the free fatty acid recep || [17]; PMID 27570890; doi:10.1021/acs.jmedchem.6b00685; 17. Azevedo C.M. Watterson K.R. Wargent E.T. Hansen S.V. Hudson B.D. Kepczynska M.A. Dunlop J. Shimpukade B. Christiansen E. Milligan G. Non-Acidic Free Fatty Acid Receptor 4 Agonists with Antidiabeti || [18]; PMID 27815121; doi:10.1016/j.bmcl.2016.10.054; 18. Lombardo M. Bender K. London C. Kirkland M. Mane J. Pachanski M. Geissler W. Cummings J. Habulihaz B. Akiyama T.E. Discovery of benzofuran propanoic acid GPR120 agonists: From uHTS hit to mechanis || [19]; PMID 28105282; doi:10.1021/acsmedchemlett.6b00394; 19. Adams G.L. Velazquez F. Jayne C. Shah U. Miao S. Ashley E.R. Madeira M. Akiyama T.E. Di Salvo J. Suzuki T. Discovery of Chromane Propionic Acid Analogues as Selective Agonists of GPR120 with in Vi; details: cited from earlier work; for EC50: Figure 1, representative GPR120 agonists
GPR120 = tested on: GPR120; set-up: method as in ref 15-26 = [15]; PMID 22519963; doi:10.1021/jm300215x; 15. Shimpukade B. Hudson B.D. Hovgaard C.K. Milligan G. Ulven T. Discovery of a potent and selective GPR120 agonist J. Med. Chem. 2012 55 4511 4515 10.1021/jm300215x 22519963 || [16]; PMID 24881566; doi:10.1016/j.bmcl.2014.05.012; 16. Sparks S.M. Chen G. Collins J.L. Danger D. Dock S.T. Jayawickreme C. Jenkinson S. Laudeman C. Leesnitzer M.A. Liang X. Identification of diarylsulfonamides as agonists of the free fatty acid recep || [17]; PMID 27570890; doi:10.1021/acs.jmedchem.6b00685; 17. Azevedo C.M. Watterson K.R. Wargent E.T. Hansen S.V. Hudson B.D. Kepczynska M.A. Dunlop J. Shimpukade B. Christiansen E. Milligan G. Non-Acidic Free Fatty Acid Receptor 4 Agonists with Antidiabeti || [18]; PMID 27815121; doi:10.1016/j.bmcl.2016.10.054; 18. Lombardo M. Bender K. London C. Kirkland M. Mane J. Pachanski M. Geissler W. Cummings J. Habulihaz B. Akiyama T.E. Discovery of benzofuran propanoic acid GPR120 agonists: From uHTS hit to mechanis || [19]; PMID 28105282; doi:10.1021/acsmedchemlett.6b00394; 19. Adams G.L. Velazquez F. Jayne C. Shah U. Miao S. Ashley E.R. Madeira M. Akiyama T.E. Di Salvo J. Suzuki T. Discovery of Chromane Propionic Acid Analogues as Selective Agonists of GPR120 with in Vi; details: Figure 1, representative GPR120 agonists; cited from earlier work
human GPR120 = tested on: human GPR120; set-up: method as in ref 15-27 = [15]; PMID 22519963; doi:10.1021/jm300215x; 15. Shimpukade B. Hudson B.D. Hovgaard C.K. Milligan G. Ulven T. Discovery of a potent and selective GPR120 agonist J. Med. Chem. 2012 55 4511 4515 10.1021/jm300215x 22519963 || [16]; PMID 24881566; doi:10.1016/j.bmcl.2014.05.012; 16. Sparks S.M. Chen G. Collins J.L. Danger D. Dock S.T. Jayawickreme C. Jenkinson S. Laudeman C. Leesnitzer M.A. Liang X. Identification of diarylsulfonamides as agonists of the free fatty acid recep || [17]; PMID 27570890; doi:10.1021/acs.jmedchem.6b00685; 17. Azevedo C.M. Watterson K.R. Wargent E.T. Hansen S.V. Hudson B.D. Kepczynska M.A. Dunlop J. Shimpukade B. Christiansen E. Milligan G. Non-Acidic Free Fatty Acid Receptor 4 Agonists with Antidiabeti || [18]; PMID 27815121; doi:10.1016/j.bmcl.2016.10.054; 18. Lombardo M. Bender K. London C. Kirkland M. Mane J. Pachanski M. Geissler W. Cummings J. Habulihaz B. Akiyama T.E. Discovery of benzofuran propanoic acid GPR120 agonists: From uHTS hit to mechanis || [19]; PMID 28105282; doi:10.1021/acsmedchemlett.6b00394; 19. Adams G.L. Velazquez F. Jayne C. Shah U. Miao S. Ashley E.R. Madeira M. Akiyama T.E. Di Salvo J. Suzuki T. Discovery of Chromane Propionic Acid Analogues as Selective Agonists of GPR120 with in Vi; details: cited from earlier work
hGPR40 = tested on: hGPR40; set-up: method as in ref 15-26 = [15]; PMID 22519963; doi:10.1021/jm300215x; 15. Shimpukade B. Hudson B.D. Hovgaard C.K. Milligan G. Ulven T. Discovery of a potent and selective GPR120 agonist J. Med. Chem. 2012 55 4511 4515 10.1021/jm300215x 22519963 || [16]; PMID 24881566; doi:10.1016/j.bmcl.2014.05.012; 16. Sparks S.M. Chen G. Collins J.L. Danger D. Dock S.T. Jayawickreme C. Jenkinson S. Laudeman C. Leesnitzer M.A. Liang X. Identification of diarylsulfonamides as agonists of the free fatty acid recep || [17]; PMID 27570890; doi:10.1021/acs.jmedchem.6b00685; 17. Azevedo C.M. Watterson K.R. Wargent E.T. Hansen S.V. Hudson B.D. Kepczynska M.A. Dunlop J. Shimpukade B. Christiansen E. Milligan G. Non-Acidic Free Fatty Acid Receptor 4 Agonists with Antidiabeti || [18]; PMID 27815121; doi:10.1016/j.bmcl.2016.10.054; 18. Lombardo M. Bender K. London C. Kirkland M. Mane J. Pachanski M. Geissler W. Cummings J. Habulihaz B. Akiyama T.E. Discovery of benzofuran propanoic acid GPR120 agonists: From uHTS hit to mechanis || [19]; PMID 28105282; doi:10.1021/acsmedchemlett.6b00394; 19. Adams G.L. Velazquez F. Jayne C. Shah U. Miao S. Ashley E.R. Madeira M. Akiyama T.E. Di Salvo J. Suzuki T. Discovery of Chromane Propionic Acid Analogues as Selective Agonists of GPR120 with in Vi; details: Figure 1; cited from earlier work
[1] = Pharmacokinetic analysis in C57BL/6 mice; assay type: in vivo; details: C57BL/6 mice
Procedure: The pharmacokinetic profiles of 10k and 14d were obtained from C57BL/6 mice. […] The pharmacokinetic profiles traces were shown in the Supplementary Materials (Figure S1, see Supporting Materials).
Plasma was collected and precipitated using two volumes of acetonitrile containing an internal standard. This was followed by centrifugation at 15.680 g for 10 min after vortexing for 5 min. The supernatant was diluted with acetonitrile and 10 µL of the supernatant was analyzed by Waters LC-PDA-MS/MS to determine plasma drug levels. Pharmacokinetic parameters were determined using mean data from four mice at each time point. Statistical analysis of the data was performed using the DAS 2.1.1 statistical software program (BioVoice, Shanghai, China).

human GPR40 (hGPR40) = human GPR40 (hGPR40) (Homo sapiens, UniProt O14842); test: Calcium flux assay in hGPR40-expressing CHO cells
Chain of human GPR40 (hGPR40) (O14842 whole entry): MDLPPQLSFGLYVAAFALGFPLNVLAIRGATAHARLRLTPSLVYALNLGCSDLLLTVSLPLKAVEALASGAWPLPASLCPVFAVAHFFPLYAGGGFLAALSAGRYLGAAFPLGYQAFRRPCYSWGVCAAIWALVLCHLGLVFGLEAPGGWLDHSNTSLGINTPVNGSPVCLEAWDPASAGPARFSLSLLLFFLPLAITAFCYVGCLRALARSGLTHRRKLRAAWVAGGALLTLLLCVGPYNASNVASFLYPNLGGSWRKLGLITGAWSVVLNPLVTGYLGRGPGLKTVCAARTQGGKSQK
Procedure: (§1) A calcium flux assay was performed to assess the agonist activity of the test compounds against the hGPR120 (mGPR120) and hGPR40 (mGPR40) receptors. […] The medium in the wells was gently discarded, and the wells were washed with Hank’s balanced salt solution (HBSS; 100 μL per well). […] The cells were then washed thrice in HBSS and allowed to equilibrate for 10 min before conducting the assay. Test compounds dissolved in dimethyl sulfoxide were diluted in HBSS at various concentrations and added to Fluo-4 AM-containing cells, and intracellular Ca^2+ concentrations were measured using FlexStation3 Molecular Devices. The EC50 value of each compound was calculated using GraphPad Prism software (version 5.0; GraphPad Software, San Diego, CA, USA).

human GPR120 (hGPR120) = target: T1, human GPR120 (hGPR120) (Homo sapiens, UniProt Q5NUL3); test: Calcium flux assay in hGPR120-transfected CHO cells
T1 sequence (Q5NUL3 1-361): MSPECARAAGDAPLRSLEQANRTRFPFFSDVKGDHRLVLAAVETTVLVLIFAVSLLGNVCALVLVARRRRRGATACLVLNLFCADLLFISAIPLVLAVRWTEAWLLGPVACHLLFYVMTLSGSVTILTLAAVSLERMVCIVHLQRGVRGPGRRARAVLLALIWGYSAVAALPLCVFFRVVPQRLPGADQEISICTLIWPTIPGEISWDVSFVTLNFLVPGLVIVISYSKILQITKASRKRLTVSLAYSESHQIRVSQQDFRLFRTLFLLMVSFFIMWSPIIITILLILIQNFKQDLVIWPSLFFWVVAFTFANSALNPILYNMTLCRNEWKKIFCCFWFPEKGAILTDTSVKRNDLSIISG
Procedure: as §1

**Q.** With `CO[C@H]1C[C@H](Oc2cc(F)c(F)c(-c3ccc4c(c3)CC[C@H](CCC(=O)O)O4)c2)C1` [Compound 4] as the compound, how does the EC50 (GPR40) read?
**A.** > 10 µM

**Q.** And the EC50 (GPR120)?
**A.** 0.035 µM

**Q.** With `CO[C@H]1C[C@H](Oc2cc(F)c(F)c(-c3c(F)cc(OCCCC(=O)O)cc3F)c2)C1` [Compound 6] as the compound, how does the EC50 (human GPR120) read?
**A.** 0.093 µM

**Q.** What about the EC50 (hGPR40) of the same compound?
**A.** > 100 µM

**Q.** Which EC50 (GPR40) does the source give for `Cc1ccc(-n2nc(C)c3cnc(-c4ccc([C@H]5C[C@@H]5C(=O)O)cc4)cc32)nc1` [Compound 3] here?
**A.** > 100 µM

**Q.** And the EC50 (GPR120)?
**A.** 0.74 µM

**Q.** Which EC50 (GPR40) does the source give for `O=C(O)CC1CCC2(CC1)CCN(c1cc(OC(F)(F)F)ccc1Cl)CC2` [Compound 2] here?
**A.** > 10 µM

**Q.** Which EC50 (GPR40) does the source give for `O=C(O)CCc1cc(F)c(OCc2c(-c3ccc(Cl)cc3F)nsc2C(F)(F)F)c(F)c1` [Compound 7] here?
**A.** > 5 µM

**Q.** What about the EC50 (GPR120) of the same compound?
**A.** 0.042 µM

**Q.** For `O=S1(=O)c2ccccc2CN1c1cc(F)cc(Oc2ccccn2)c1` [Compound 5], which GPR40 activity (GPR40; at 100 μM, Figure 1) is on record?
**A.** Inactive

**Q.** What about the EC50 (GPR120) of the same compound?
**A.** 0.123 µM

**Q.** Which melting point does the source give for `Cc1ccc(-c2ccc(F)cc2OCc2ccc(OCCCC(=O)O)c(F)c2)cc1` [Compound 10k, 4-(2-fluoro-4-(((4-fluoro-4′-methyl-[1,1′-biphenyl]-2-yl)oxy)methyl)phenoxy)butanoic acid] here?
**A.** 130 to 132 °C

**Q.** And the “metabolic stability in vivo” value ([1]; pharmacokinetics, in words)?
**A.** higher metabolic stability than TUG-891; also recorded: excellent metabolic stability

**Q.** And the Tmax ([1]; male, mouse, plasma, po, 10 mg/kg gavage)?
**A.** 30 min

**Q.** And the Cmax ([1]; male, mouse, plasma, po, 10 mg/kg gavage, 0.5% MC, mean ± SD of four mice)?
**A.** 2370 ± 335 ng/mL

**Q.** What about the AUC ([1]; male, mouse, plasma, po, 10 mg/kg gavage, mean ± SD of four mice) of the same compound?
**A.** 4250 ± 577 ng·h/mL

**Q.** What about the half-life ([1]; male, mouse, plasma, po, 10 mg/kg gavage, mean ± SD of four mice, read-out: t1/2 (converted)) of the same compound?
**A.** 66 ± 18 min

**Q.** And the EC50 (human GPR40 (hGPR40))?
**A.** 74.3 µM

**Q.** And the EC50 (human GPR120 (hGPR120))?
**A.** 0.0576 µM

**Q.** What about the Selectivity (human GPR120 (hGPR120); hGPR120 over hGPR40) of the same compound?
**A.** 1289.9

**Q.** With `Cc1ccc(-c2ccc(F)cc2COc2ccc(CC3SC(=O)NC3=O)c(Cl)c2)cc1` (stereo not shown) [Compound 8] as the compound, how does the EC50 (GPR40) read?
**A.** 79 µM

**Q.** What about the EC50 (GPR120) of the same compound?
**A.** 0.076 µM
